pEC50, pKi: −log10 of the molar value.
Tests used:
[1] = target: T1, G protein-coupled receptor 88 (Homo sapiens, UniProt Q9GZN0)
Description: Displacement of [3H]RTI-33 from GPR88 (unknown origin) by competition binding assay

[2] = target: T1, G protein-coupled receptor 88; remark: listed apart in the source
Description: Agonist activity at GPR88 (unknown origin) transfected in HEK293 cells assessed as cAMP level by GloSensor cAMP assay

T1 sequence (Q9GZN0 whole entry): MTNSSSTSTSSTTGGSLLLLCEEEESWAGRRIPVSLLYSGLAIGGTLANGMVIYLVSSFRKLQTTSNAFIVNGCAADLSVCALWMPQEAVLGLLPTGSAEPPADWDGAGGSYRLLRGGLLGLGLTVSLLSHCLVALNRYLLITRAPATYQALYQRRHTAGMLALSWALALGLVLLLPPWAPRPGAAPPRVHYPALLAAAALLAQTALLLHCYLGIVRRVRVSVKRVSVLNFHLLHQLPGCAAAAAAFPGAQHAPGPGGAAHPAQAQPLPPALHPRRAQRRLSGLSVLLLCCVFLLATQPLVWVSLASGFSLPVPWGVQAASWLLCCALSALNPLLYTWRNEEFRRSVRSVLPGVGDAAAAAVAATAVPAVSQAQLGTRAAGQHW

Structure (SMILES): CCCC(C)COc1ccc([C@H](CN)NC(=O)[C@@H](C)c2ccccc2)cc1 (some centres not stated)
- pKi [1]: 6.66
- pEC50 [2]: 6.52

— ChEMBL document CHEMBL5236657, “Synthesis and pharmacological validation of a novel radioligand for the orphan GPR88 receptor” (Bioorg Med Chem Lett, 2023)
